Measurements from patent publication US20240245673A1, “Papain-like protease (PLpro) inhibitors” (Pfizer Inc., priority 2022, published 2024).
Read-outs that look alike come from different tables or passages of the source.

Target: SARS-CoV-2 Papain like protease (PLpro) (Severe acute respiratory syndrome coronavirus 2 (2019-nCoV) (SARS-CoV-2), UniProt P0DTD1)
Test: Papain Like Protease (PLpro) biochemical assay with profluorogenic substrate Z-RLRGG-AMC
Conditions: SARS-CoV-2 PLpro 6.25 nM, 25 μM Z-RLRGG-AMC substrate, 60 minute reaction

| Structure (SMILES) | IC50 (read-out: IC50) [µM] | IC50 (IC50 (μM)) [µM] |
| --- | --- | --- |
| Cc1cc(C(=O)N(C)Cc2cscn2)ccc1C(=O)N[C@H](C)c1cc(-c2cnn(C)c2)nc2ccccc12 [Example 243] | 0.077 | – |
| Cc1cc(C(=O)NC(C)(C)c2ncc[nH]2)ccc1C(=O)N[C@H](C)c1cc(-c2cnn(C)c2)nc2ccccc12 [Example 244] | 0.167 | – |
| Cc1cc(C(=O)NCc2ncc[nH]2)ccc1C(=O)N[C@H](C)c1cc(-c2cnn(C)c2)nc2ccccc12 [Example 245] | 0.005 | – |
| Cc1cc(C(=O)NC(C)c2ncc[nH]2)ccc1C(=O)N[C@H](C)c1cc(-c2cnn(C)c2)nc2ccccc12 (some centres unmarked) [Example 246] | 0.035 | – |
| Cc1ccc(N2CCC(N)C2=O)cc1C(=O)N[C@H](C)c1cc(-c2cnn(C)c2)nc2ccccc12 (some centres unmarked) [Example 247] | 0.091 | – |
| Cc1ccc(N2CCNCC2=O)cc1C(=O)N[C@H](C)c1cc(-c2cnn(C)c2)nc2ccccc12 [Example 248] | 0.39 | – |
| Cc1ccc(N2CCN(C)CC2=O)cc1C(=O)N[C@H](C)c1cc(-c2cnn(C)c2)nc2ccccc12 [Example 249, (R)-2-methyl-N-(1-(2-(1-methyl-1H-pyrazol-4-yl)quinolin-4-yl)ethyl)-5-(4-methyl-2-oxopiperazin-1-yl)benzamide] | 0.733 | – |
| CCOC(=O)[C@@H]1O[C@H]1C(=O)NNC(=O)CCc1ccccc1C(=O)N[C@H](C)c1cc(-c2cnn(C)c2)nc2ccccc12 [Example 250, ethyl (2R,3R)-3-(2-(3-(2-(((R)-1-(2-(1-methyl-1H-pyrazol-4-yl)quinolin-4-yl)ethyl)carbamoyl)phenyl)propanoyl)hydrazine-1-carbonyl)oxirane-2-carboxylate] | 0.002 | – |
| Cc1ccc(N2CC3CC(C2)N3)cc1C(=O)N[C@H](C)c1cc(-c2cnn(C)c2)nc2ccccc12 [Example 251, 5-(3,6-diazabicyclo[3.1.1]heptan-3-yl)-2-methyl-N—((R)-1-(2-(1-methyl-1H-pyrazol-4-yl)quinolin-4-yl)ethyl)benzamide] | – | 0.005 |
| Cc1ccc(N2CC3CC(C2)N3C)cc1C(=O)N[C@H](C)c1cc(-c2cnn(C)c2)nc2ccccc12 [Example 252, 2-methyl-N—((R)-1-(2-(1-methyl-1H-pyrazol-4-yl)quinolin-4-yl)ethyl)-5-(6-methyl-3,6-diazabicyclo[3.1.1]heptan-3-yl)benzamide] | – | 0.005 |
| Cc1cc(C(=O)NCc2nccn2C)ccc1C(=O)NC1(c2cc(-c3cnn(C)c3)nc3ccccc23)CC1 [Example 253] | 0.006 | – |
| Cc1cc(C(=O)NCc2cscn2)ccc1C(=O)NC1(c2cc(-c3cnn(C)c3)nc3ccccc23)CC1 [Example 254] | 0.005 | – |
| Cc1ccc(N2CC3CC2CN3)cc1C(=O)N[C@H](C)c1cc(-c2cnn(C)c2)nc2ccccc12 (some centres unmarked) [Example 255] | 0.019 | – |
| Cc1ccc(N2CC3CC2CN3C)cc1C(=O)N[C@H](C)c1cc(-c2cnn(C)c2)nc2ccccc12 (stereo partly drawn) [Example 256, 2-methyl-N-((R)-1-(2-(1-methyl-1H-pyrazol-4-yl)quinolin-4-yl)ethyl)-5-(5-methyl-2,5-diazabicyclo[2.2.1]heptan-2-yl)benzamide] | 0.015 | – |
| CNC(=O)c1cc(-c2cc([C@@H](C)NC(=O)c3cc(CN)ccc3C)c3ccccc3n2)cn1C [Example 257, (R)-4-(4-(1-(5-(aminomethyl)-2-methylbenzamido)ethyl)quinolin-2-yl)-N,1-dimethyl-1H-pyrrole-2-carboxamide] | 0.022 | – |
| Cc1ccc(CN)cc1C(=O)N[C@H](C)c1cc(-c2cc(C(=O)N(C)C)n(C)c2)nc2ccccc12 [Example 258, (R)-4-(4-(1-(5-(aminomethyl)-2-methylbenzamido)ethyl)quinolin-2-yl)-N,N,1-trimethyl-1H-pyrrole-2-carboxamide] | 0.044 | – |
| CNC(=O)Cc1ccc(C(=O)N[C@H](C)c2cc(-c3cnn(C)c3)nc3ccccc23)c(C)c1 [Example 259, (R)-2-methyl-N-(1-(2-(1-methyl-1H-pyrazol-4-yl)quinolin-4-yl)ethyl)-4-(2-(methylamino)-2-oxoethyl)benzamide] | 0.147 | – |
